Test results taken from ChEMBL document CHEMBL1157712, “Hit to lead account of the discovery of bisbenzamide and related ureidobenzamide inhibitors of Rho kinase” (J Med Chem, 2010).

Assays:
[1] = target: T1, Protein kinase C epsilon type (Homo sapiens, UniProt Q02156); test: Inhibition of PKCepsilon
T1 sequence (Q02156 whole entry): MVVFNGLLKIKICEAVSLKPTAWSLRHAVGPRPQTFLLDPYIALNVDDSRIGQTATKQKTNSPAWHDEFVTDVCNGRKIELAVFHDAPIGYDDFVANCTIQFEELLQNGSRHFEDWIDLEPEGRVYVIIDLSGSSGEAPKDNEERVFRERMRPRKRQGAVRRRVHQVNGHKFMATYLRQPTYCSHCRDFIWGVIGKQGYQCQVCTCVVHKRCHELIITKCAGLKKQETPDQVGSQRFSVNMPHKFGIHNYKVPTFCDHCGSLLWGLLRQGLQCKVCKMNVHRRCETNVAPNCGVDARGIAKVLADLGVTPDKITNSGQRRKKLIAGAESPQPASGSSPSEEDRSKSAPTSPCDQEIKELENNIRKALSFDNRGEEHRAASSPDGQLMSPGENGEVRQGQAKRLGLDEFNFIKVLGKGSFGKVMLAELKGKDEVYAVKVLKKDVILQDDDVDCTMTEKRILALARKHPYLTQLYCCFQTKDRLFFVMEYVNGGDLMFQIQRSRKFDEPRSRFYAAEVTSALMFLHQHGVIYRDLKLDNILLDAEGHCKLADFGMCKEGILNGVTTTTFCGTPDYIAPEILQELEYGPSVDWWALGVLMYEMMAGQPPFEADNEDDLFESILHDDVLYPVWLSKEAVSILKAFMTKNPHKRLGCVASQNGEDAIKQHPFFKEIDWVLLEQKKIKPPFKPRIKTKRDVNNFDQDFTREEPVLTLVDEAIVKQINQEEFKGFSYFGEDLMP

[2] = target: Dual specificity tyrosine-phosphorylation-regulated kinase 1A (Homo sapiens) (UniProt Q13627); test: Inhibition of DYRK1A at 3 uM relative to control; values are per cent of control
[3] = target: Aurora kinase B (Homo sapiens) (UniProt Q96GD4); test: Inhibition of Aurora B at 3 uM relative to control; values are per cent of control
Aurora kinase B (Homo sapiens), sequence (Q96GD4 whole entry): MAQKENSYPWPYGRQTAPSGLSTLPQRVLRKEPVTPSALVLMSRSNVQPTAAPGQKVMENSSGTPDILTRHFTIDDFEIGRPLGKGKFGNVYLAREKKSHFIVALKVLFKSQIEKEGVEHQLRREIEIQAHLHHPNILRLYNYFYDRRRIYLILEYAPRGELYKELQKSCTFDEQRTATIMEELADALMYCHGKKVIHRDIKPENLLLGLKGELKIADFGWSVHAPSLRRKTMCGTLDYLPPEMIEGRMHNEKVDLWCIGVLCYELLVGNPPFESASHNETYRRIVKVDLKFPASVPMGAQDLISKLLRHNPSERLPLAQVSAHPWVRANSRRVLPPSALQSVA

[4] = target: Myosin light chain kinase, smooth muscle (Homo sapiens) (UniProt Q15746); test: Inhibition of SMMLCK at 3 uM relative to control; values are per cent of control
Myosin light chain kinase, smooth muscle (Homo sapiens), sequence (Q15746 whole entry): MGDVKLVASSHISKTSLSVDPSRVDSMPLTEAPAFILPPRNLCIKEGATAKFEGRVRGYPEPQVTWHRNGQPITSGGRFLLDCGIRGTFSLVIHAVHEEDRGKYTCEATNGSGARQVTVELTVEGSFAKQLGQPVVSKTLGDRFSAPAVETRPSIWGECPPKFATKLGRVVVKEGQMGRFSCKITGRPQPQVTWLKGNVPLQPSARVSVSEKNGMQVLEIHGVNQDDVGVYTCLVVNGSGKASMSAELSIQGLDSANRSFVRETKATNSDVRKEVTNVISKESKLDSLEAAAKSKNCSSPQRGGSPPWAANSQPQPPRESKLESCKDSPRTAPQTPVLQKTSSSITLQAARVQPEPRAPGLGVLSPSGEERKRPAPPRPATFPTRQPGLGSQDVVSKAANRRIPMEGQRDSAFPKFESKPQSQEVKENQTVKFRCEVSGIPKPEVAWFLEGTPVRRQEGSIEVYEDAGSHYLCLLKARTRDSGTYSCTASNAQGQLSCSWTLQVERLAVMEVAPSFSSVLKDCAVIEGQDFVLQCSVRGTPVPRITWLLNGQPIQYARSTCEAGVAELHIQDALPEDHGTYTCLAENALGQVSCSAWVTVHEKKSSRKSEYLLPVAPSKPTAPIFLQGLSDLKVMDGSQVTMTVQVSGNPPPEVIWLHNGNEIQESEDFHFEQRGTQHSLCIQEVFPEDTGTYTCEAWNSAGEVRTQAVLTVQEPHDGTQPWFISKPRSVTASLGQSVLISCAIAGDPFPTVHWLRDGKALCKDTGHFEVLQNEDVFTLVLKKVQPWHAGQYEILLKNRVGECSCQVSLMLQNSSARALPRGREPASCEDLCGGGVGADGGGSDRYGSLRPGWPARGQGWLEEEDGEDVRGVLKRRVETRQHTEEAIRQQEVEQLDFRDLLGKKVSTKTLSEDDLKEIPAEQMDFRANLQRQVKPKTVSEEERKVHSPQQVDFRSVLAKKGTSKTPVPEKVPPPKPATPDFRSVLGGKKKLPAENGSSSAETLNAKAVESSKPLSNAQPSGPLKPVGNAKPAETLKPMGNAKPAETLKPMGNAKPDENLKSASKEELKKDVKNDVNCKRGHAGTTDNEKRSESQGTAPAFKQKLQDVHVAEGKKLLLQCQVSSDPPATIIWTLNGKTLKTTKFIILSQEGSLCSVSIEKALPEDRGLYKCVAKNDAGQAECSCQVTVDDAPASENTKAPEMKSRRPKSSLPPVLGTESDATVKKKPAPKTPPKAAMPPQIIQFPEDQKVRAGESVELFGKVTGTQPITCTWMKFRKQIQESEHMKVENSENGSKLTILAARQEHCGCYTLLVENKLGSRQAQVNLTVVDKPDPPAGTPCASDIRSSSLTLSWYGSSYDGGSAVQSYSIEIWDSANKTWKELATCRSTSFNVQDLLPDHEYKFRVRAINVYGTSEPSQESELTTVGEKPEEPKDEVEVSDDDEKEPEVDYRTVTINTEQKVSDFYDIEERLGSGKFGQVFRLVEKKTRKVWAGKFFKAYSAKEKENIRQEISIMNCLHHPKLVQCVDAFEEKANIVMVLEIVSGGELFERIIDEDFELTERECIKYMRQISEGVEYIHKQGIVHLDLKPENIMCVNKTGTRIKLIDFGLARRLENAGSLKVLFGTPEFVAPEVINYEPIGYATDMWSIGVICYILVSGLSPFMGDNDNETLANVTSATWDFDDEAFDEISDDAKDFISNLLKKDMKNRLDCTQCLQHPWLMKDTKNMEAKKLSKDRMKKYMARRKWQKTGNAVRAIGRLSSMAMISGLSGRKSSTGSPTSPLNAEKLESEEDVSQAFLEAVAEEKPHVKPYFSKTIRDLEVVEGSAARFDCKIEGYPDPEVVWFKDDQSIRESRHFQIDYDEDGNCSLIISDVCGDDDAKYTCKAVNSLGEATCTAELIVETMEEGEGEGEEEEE

[5] = target: Proto-oncogene tyrosine-protein kinase Src (Homo sapiens) (UniProt P12931); test: Inhibition of SRC at 3 uM relative to control; values are per cent of control
[6] = target: Ribosomal protein S6 kinase alpha-5 (Homo sapiens) (UniProt O75582); settings: 3 to 6 uM
Description: Inhibition of MSK1 at 3 to 6 uM relative to control

[7] = target: Serine/threonine-protein kinase 26 (Homo sapiens, UniProt Q9P289); test: Inhibition of MST4
[8] = target: Dual specificity mitogen-activated protein kinase kinase 1 (Homo sapiens) (UniProt Q02750); settings: 3 to 6 uM
Dual specificity mitogen-activated protein kinase kinase 1 (Homo sapiens), sequence (Q02750 whole entry): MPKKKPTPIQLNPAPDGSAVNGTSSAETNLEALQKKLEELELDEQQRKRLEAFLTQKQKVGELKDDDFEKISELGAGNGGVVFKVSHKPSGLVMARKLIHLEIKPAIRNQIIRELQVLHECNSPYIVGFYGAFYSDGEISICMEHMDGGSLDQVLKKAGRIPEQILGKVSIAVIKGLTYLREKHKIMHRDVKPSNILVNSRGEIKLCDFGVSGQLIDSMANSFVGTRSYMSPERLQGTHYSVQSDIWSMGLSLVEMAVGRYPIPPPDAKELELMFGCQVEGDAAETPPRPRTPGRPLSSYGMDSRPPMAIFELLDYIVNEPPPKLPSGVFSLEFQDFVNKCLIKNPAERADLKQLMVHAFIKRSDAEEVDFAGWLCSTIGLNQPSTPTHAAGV
Description: Inhibition of MKK1 at 3 to 6 uM relative to control

[9] = test system: Caco-2; test: Permeability from apical to basolateral side in human Caco-2 cells; format: ADME, cell-based; settings: caco-2, BLD = below limit of detection
[10] = target: Tyrosine-protein kinase CSK (Homo sapiens) (UniProt P41240); settings: 3 to 6 uM
Tyrosine-protein kinase CSK (Homo sapiens), sequence (P41240 2-450 limits assumed): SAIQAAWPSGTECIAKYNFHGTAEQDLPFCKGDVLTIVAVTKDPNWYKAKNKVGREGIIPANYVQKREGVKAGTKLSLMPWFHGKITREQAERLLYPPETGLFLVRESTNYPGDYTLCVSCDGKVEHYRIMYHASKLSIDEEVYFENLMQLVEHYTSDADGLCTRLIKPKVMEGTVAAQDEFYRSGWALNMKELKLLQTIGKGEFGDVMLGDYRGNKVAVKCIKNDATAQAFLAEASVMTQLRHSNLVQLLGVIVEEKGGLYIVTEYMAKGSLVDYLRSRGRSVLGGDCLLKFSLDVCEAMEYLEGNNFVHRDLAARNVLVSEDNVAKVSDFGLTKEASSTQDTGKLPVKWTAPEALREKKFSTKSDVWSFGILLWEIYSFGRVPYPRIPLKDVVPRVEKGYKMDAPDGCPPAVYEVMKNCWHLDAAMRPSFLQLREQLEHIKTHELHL
Description: Inhibition of CSK at 3 to 6 uM relative to control

[11] = target: Cytochrome P450 2C19 (Homo sapiens, UniProt P33261); test: Inhibition of human CYP2C19 by fluorescence assay; format: ADME
[12] = target: Death-associated protein kinase 1 (Homo sapiens) (UniProt P53355); settings: 3 to 6 uM
Death-associated protein kinase 1 (Homo sapiens), sequence (P53355 whole entry, looked up): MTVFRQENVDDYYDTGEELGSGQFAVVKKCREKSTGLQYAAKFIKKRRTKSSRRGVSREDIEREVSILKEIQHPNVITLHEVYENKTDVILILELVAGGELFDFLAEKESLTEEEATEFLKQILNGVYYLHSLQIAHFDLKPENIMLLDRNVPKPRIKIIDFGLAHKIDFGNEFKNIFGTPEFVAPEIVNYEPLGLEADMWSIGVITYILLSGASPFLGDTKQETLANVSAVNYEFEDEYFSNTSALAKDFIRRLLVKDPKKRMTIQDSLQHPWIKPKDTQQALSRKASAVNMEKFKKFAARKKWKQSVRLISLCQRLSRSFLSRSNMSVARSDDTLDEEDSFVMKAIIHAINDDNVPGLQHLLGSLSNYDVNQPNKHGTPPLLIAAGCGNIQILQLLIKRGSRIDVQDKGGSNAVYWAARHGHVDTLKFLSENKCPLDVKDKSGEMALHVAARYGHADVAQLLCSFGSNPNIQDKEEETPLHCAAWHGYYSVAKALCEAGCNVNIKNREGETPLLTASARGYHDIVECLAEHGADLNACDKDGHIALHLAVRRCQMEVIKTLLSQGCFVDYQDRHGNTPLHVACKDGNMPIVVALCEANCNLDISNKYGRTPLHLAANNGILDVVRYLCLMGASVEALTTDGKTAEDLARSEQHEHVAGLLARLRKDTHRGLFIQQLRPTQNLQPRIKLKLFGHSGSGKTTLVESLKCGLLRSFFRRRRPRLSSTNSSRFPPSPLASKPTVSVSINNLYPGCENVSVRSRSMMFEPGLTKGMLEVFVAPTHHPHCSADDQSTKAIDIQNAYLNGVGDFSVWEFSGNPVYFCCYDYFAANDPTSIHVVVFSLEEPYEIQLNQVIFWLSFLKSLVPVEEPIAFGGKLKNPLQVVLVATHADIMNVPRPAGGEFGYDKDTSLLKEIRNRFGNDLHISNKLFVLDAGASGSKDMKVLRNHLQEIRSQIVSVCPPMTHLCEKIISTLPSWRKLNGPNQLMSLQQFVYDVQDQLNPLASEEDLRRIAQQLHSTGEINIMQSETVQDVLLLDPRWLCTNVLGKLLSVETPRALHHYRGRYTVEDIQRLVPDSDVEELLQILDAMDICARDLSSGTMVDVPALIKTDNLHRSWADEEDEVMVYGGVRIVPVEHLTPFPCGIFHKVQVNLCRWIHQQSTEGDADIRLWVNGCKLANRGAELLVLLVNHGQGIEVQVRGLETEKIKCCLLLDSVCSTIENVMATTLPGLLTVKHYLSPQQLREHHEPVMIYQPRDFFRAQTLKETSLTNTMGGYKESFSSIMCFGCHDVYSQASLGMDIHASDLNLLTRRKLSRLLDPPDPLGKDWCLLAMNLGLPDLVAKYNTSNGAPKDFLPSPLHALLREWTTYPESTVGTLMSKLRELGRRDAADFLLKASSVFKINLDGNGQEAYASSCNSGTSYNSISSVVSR
Description: Inhibition of DAPK1 at 3 to 6 uM relative to control

[13] = target: Serine/threonine-protein kinase Chk2 (Homo sapiens) (UniProt O96017); settings: 3 to 6 uM
Serine/threonine-protein kinase Chk2 (Homo sapiens), sequence (O96017 whole entry): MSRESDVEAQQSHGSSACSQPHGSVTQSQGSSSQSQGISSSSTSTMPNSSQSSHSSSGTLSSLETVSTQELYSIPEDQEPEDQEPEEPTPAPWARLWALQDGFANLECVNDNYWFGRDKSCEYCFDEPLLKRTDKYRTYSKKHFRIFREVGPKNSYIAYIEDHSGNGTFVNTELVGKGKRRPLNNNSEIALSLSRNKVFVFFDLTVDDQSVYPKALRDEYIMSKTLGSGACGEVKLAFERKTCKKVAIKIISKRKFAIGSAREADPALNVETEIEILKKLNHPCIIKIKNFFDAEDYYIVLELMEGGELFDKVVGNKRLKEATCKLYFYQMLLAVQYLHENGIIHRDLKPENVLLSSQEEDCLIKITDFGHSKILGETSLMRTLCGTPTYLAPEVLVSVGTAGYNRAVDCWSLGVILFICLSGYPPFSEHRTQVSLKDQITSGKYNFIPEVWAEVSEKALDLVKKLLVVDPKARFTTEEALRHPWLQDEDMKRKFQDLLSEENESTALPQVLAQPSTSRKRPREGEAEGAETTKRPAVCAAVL
Description: Inhibition of CHK2 at 3 to 6 uM relative to control

[14] = target: MAP kinase-activated protein kinase 5 (Homo sapiens) (UniProt Q8IW41); settings: 3 to 6 uM
Description: Inhibition of PRAK at 3 to 6 uM relative to control

[15] = target: Mitogen-activated protein kinase 10 (Homo sapiens) (UniProt P53779); settings: 3 to 6 uM
Description: Inhibition of JNK3a1 at 3 to 6 uM relative to control

IC50 [1] [µM]	residual activity [2] [%]	residual activity [3] [%]	residual activity [4] [%]	residual activity [5] [%]	residual activity [6] [%]	IC50 [7] [µM]	residual activity [8] [%]	permeability [9]	residual activity [10] [%]	IC50 [11] [µM]	residual activity [13] [%]	residual activity [14] [%]	residual activity [15] [%]	Compound	residual activity [12] [%]
> 5	> 50	> 50	> 50	> 50	–	–	–	–	–	–	–	–	–	NC(=O)c1ccc(NC(=O)NCc2cccc(C(=O)Nc3ccc4c(c3)CNCC4)c2)cc1	–
–	–	–	–	–	> 50	> 10	> 50	BLD	> 50	> 30	> 50	> 50	> 50	COc1ccc(C(=O)NCc2cccc(C(=O)Nc3ccc4c(c3)CNCC4)c2)cc1OC	> 50
